From patent publication US10258039B2, “Substituted pyrazolylpyrazole derivative and use of same as herbicide” (KYOYU AGRI CO., LTD., priority 2015, dated 2019)

Assays:
Type in all cases: in vivo
[1] = system: Chenopodium album; assay: Weed foliar treatment test (Test 3, 1.0 to 2.0 leaf stage); details: foliar spray at 1.0 to 2.0 leaf stage of Digitaria ciliaris, 3 weeks, 25° C.
Procedure: (§1) 3. Weed Foliar Treatment Test
(§2) Soil was filled into a 1/6000 are pot followed by seeding with Digitaria ciliaris, Chenopodium album and Amaranthus retroflexus, covering with soil, and cultivating in a glass greenhouse at an average atmospheric temperature of 25° C.
(§3) Wettable powders of Target Compound (I) shown in Table 1 prepared in compliance with the preparation examples were diluted with water to the prescribed amount of chemical and uniformly sprayed onto the weeds using 150 liters of sprayed water per 10 are when Digitaria ciliaris had grown to the 1.0 to 2.0 leaf stage.
(§4) After treating for 3 weeks in a glass greenhouse at an average atmospheric temperature of 25° C., the herbicidal efficacy thereof was investigated.
(§5) Evaluation of herbicidal efficacy was carried out in the same manner as the above-mentioned Test Example 1.

[2] = system: Digitaria ciliaris; assay: as above; details: foliar spray at 1.0 to 2.0 leaf stage of Digitaria ciliaris, 3 weeks, 25° C.
Procedure: as §1, §2, §3, §4, §5

[3] = system: Amaranthus retroflexus; assay: as above; details: foliar spray at 1.0 to 2.0 leaf stage of Digitaria ciliaris, 3 weeks, 25° C.
Procedure: as §1, §2, §3, §4, §5

[4] = system: Oryza sativa; assay: Paddy herbicidal activity test, phytotoxicity to transplanted rice; details: rice transplanted at 2.0 leaf stage, 30 days, 30° C.
Procedure: (§6) 1. Paddy Herbicidal Activity Test
(§7) Rice paddy soil was filled into a 1/10000 are pot followed by the addition of suitable amounts of water and chemical fertilizer, kneading, seeding with Echinochloa crus-galli, Monochoria vaginalis and Scirpus juncoides and maintaining in an irrigated state at a water depth of 3 cm.
(§8) Wettable powders of Target Compound (I) shown in. Table 1 prepared in compliance with the preparation examples were diluted with a suitable amount of water, rice plants in the 2.0 leaf stage were transplanted during 3.5 leaf stage of Echinochloa crus-galli, and treated by dropping in chemical in the prescribed amount per 10 are using a pipette.
(§9) After treating for 30 days in a glass greenhouse at an average atmospheric temperature of 30° C., the herbicidal efficacy thereof was investigated.
(§10) Evaluation of herbicidal efficacy was carried out by comparing growth inhibition rate (%) with an untreated group, while evaluation of phytotoxicity was carried out by comparing growth inhibition rate (%) with the state of a complete eradication group, and were evaluated at 11 levels indicated below.

[5] = system: Echinochloa crus-galli; assay: Paddy herbicidal activity test; details: irrigated paddy pot, treated at 3.5 leaf stage of Echinochloa crus-galli, 30 days, 30° C.
Procedure: as §6, §7, §8, §9, §10

[6] = system: Monochoria vaginalis; assay: Paddy herbicidal activity test; details: irrigated paddy pot, 30 days, 30° C.
Procedure: as §6, §7, §8, §9, §10

[7] = system: Scirpus juncoides; assay: Paddy herbicidal activity test; details: irrigated paddy pot, 30 days, 30° C.
Procedure: as §6, §7, §8, §9, §10

[8] = system: Chenopodium album; assay: Farming soil treatment test; details: soil surface spray prior to weed growth, 30 days, 30° C.
Procedure: (§11) 2. Farming Soil Treatment Test
(§12) Field soil was filled into a 1/6000 are pot followed by seeding with Digitaria ciliaris, Chenopodium album and Amaranthus retroflexus and covering with soil.
(§13) Wettable powders of compounds of formula (I) shown in Table 1 prepared in compliance with the preparation examples were diluted with water to the prescribed amount of chemical and uniformly sprayed onto each soil surface layer using 100 liters of sprayed water per 10 are prior to weed growth following seeding.
as §9, §5

[9] = system: Digitaria ciliaris; assay: Farming soil treatment test; details: soil surface spray prior to weed growth, 30 days, 30° C.
Procedure: as §11, §12, §13, §9, §5

[10] = system: Amaranthus retroflexus; assay: Farming soil treatment test; details: soil surface spray prior to weed growth, 30 days, 30° C.
Procedure: as §11, §12, §13, §9, §5

[11] = system: Digitaria ciliaris; assay: Weed foliar treatment test (Test 4, 4.0 to 5.0 leaf stage); details: 10g a.i./10a; foliar spray at 4.0 to 5.0 leaf stage of Digitaria ciliaris (plant height 10 cm to 15 cm); 20 days, 25° C.
Procedure: (§14) 4. Weed Foliar Treatment Test
(§15) Field soil was filled into a 1/4500 are pot followed by seeding with Digitaria ciliaris and Galinsoga parviflora, covering with soil and cultivating in a glass greenhouse at an average atmospheric temperature of 25° C.
as §3, with “100” for “150”, “4.0” for “1.0”, “5.0” for “2.0”, “stage (plant height: 10 cm to 15 cm).” for “stage.”
(§16) After treating for 20 days in a glass greenhouse at an average atmospheric temperature of 25° C., the herbicidal efficacy thereof was investigated.
as §5

[12] = system: Galinsoga parviflora; assay: as above; details: 10g a.i./10a; foliar spray at 4.0 to 5.0 leaf stage of Digitaria ciliaris; 20 days, 25° C.
Procedure: as §14, §15
as §3, with “100” for “150”, “4.0” for “1.0”, “5.0” for “2.0”, “stage (plant height: 10 cm to 15 cm).” for “stage.”
as §16, §5

N#Cc1cnn(-c2nn3c(c2Cl)CCCC3)c1NC(=O)C1CC1 [Control agent 4.190, reference compound]
4 (4: 40% to less than 50%): herbicidal efficacy, Amaranthus retroflexus ([3]; 5g a.i./10a) | herbicidal efficacy, Monochoria vaginalis ([6]; 1g a.i./10a) | herbicidal efficacy, Scirpus juncoides ([7]; 1g a.i./10a) | herbicidal efficacy, Digitaria ciliaris ([9]; 10g a.i./10a) | herbicidal efficacy, Amaranthus retroflexus ([10]; 5g a.i./10a) | herbicidal efficacy, Amaranthus retroflexus ([10]; 10g a.i./10a) | herbicidal efficacy, Galinsoga parviflora [12]
6 (6: 60% to less than 70%): herbicidal efficacy, Chenopodium album ([1]; 10g a.i./10a) | herbicidal efficacy, Digitaria ciliaris ([2]; 10g a.i./10a) | herbicidal efficacy, Amaranthus retroflexus ([3]; 10g a.i./10a) | herbicidal efficacy, Echinochloa crus-galli ([5]; 1g a.i./10a) | herbicidal efficacy, Echinochloa crus-galli ([5]; 5g a.i./10a) | herbicidal efficacy, Chenopodium album ([8]; 10g a.i./10a)
3 (3: 30% to less than 40%): herbicidal efficacy, Digitaria ciliaris ([9]; 5g a.i./10a)
9 (9: 90% to less than 100%): phytotoxicity, Oryza sativa ([4]; 5g a.i./10a)
2 (2: 20% to less than 30%): herbicidal efficacy, Digitaria ciliaris [11]
5 (5: 50% to less than 60%): herbicidal efficacy, Chenopodium album ([1]; 5g a.i./10a) | herbicidal efficacy, Digitaria ciliaris ([2]; 5g a.i./10a) | herbicidal efficacy, Monochoria vaginalis ([6]; 5g a.i./10a) | herbicidal efficacy, Scirpus juncoides ([7]; 5g a.i./10a) | herbicidal efficacy, Chenopodium album ([8]; 5g a.i./10a)
8 (8: 80% to less than 90%): phytotoxicity, Oryza sativa ([4]; 1g a.i./10a)
